Source: publication PMC9151520 (Archives of Toxicology, 2022)
“And” between values parts separate entries of the source, which are not always exact repeats. Equal values may be shown once. Where a name gives a salt, the structure may show the parent alone. Read-outs that look alike come from different tables or passages of the source.

How the values were obtained:
[1] = test system: p53 signaling (p53RE-bla HCT-116 cells)
[2] = test system: p53 signaling (p53RE-bla HCT-116 cells); remark: listed apart in the source
[3] = test system: p53 signaling (p53RE-bla HCT-116 cells); assay: cells; settings: Homo sapiens
[4] = test system: p53 signaling (p53RE-bla HCT-116 cells); assay: cells; assay type: cell-based
[5] = HCT-116, read-out: p53 activation EC50, primary screening
[6] = HCT-116, read-out: p53 activation efficacy, primary screening
[7] = Homo sapiens, HCT-116, read-out: p53 activation EC50, primary screening
[8] = Homo sapiens, HCT-116, read-out: p53 activation efficacy, primary screening
[9] = HCT-116, read-out: p53 activation EC50, cherry pick confirmation
[10] = HCT-116, read-out: p53 activation efficacy, cherry pick confirmation
[11] = HCT-116, read-out: EC50, p53 activation, primary screening
[12] = Homo sapiens, HCT-116, read-out: EC50, p53 activation, cherry pick confirmation
[13] = Homo sapiens, HCT-116, read-out: EC50, p53 activation, primary screening
[14] = Homo sapiens, HCT-116, read-out: Efficacy, p53 activation, cherry pick confirmation
[15] = Homo sapiens, HCT-116, read-out: Efficacy, p53 activation, primary screening

| Compound | p53 activation EC50, cherry pick confirmation [1] | p53 activation efficacy, cherry pick confirmation [1] | p53 activation EC50, cherry pick confirmation [2] | p53 activation EC50, primary screening [2] | p53 activation efficacy, cherry pick confirmation [2] | p53 activation efficacy, primary screening [2] | Viability EC50, cherry pick confirmation (p53RE-bla HCT-116 cells) | Viability EC50, primary screening (p53RE-bla HCT-116 cells) | Viability efficacy, cherry pick confirmation (p53RE-bla HCT-116 cells) | Viability efficacy, primary screening (p53RE-bla HCT-116 cells) | p53 activation EC50, cherry pick confirmation [4] | p53 activation efficacy, cherry pick confirmation [4] | p53 activation EC50, primary screening [4] | p53 activation efficacy, primary screening [4] | EC50, p53 activation, cherry pick confirmation [2] | EC50, p53 activation, primary screening [2] | Efficacy, p53 activation, cherry pick confirmation [2] | Efficacy, p53 activation, primary screening [2] | EC50, viability, cherry pick confirmation (p53RE-bla HCT-116 cells) | EC50, viability, primary screening (p53RE-bla HCT-116 cells) | also measured |
| --- | --- | --- | --- | --- | --- | --- | --- | --- | --- | --- | --- | --- | --- | --- | --- | --- | --- | --- | --- | --- | --- |
| c1ccc2c(c1)c1cccc3ccc4cccc2c4c31 [Benzo(e)pyrene] | inactive | inactive | inactive | inactive | inactive | inactive | inactive | inactive | inactive | inactive | inactive | inactive | – | – | – | – | – | – | – | – | EC50 [3, 5]: 20.1 µM; Emax [3, 6]: 48.3%; EC50 [4, 7]: 36.3 µM; Emax [4, 8]: 104% |
| CCN(C)C(=O)Oc1cccc([C@H](C)N(C)C)c1 [Rivastigmine tartrate] | – | – | inactive | – | inactive | – | inactive | inactive | inactive | inactive | inactive | inactive | inactive | inactive | – | – | – | – | – | – | EC50 [3, 9]: 8.41 µM; Emax [3, 10]: 32.8% |
| c1cc2ccc3cccc4ccc(c1)c2c34 [Pyrene] | inactive | inactive | inactive | inactive | inactive | inactive | inactive | inactive | inactive | inactive | inactive | inactive | inactive | inactive | – | – | – | – | – | – | EC50 [3, 5]: 21.7 µM; Emax [3, 6]: 51.6% |
| CCCCCCNC(=O)n1cc(F)c(=O)[nH]c1=O [Carmofur] | – | – | – | – | – | – | – | – | – | – | – | – | – | – | inactive | inactive | inactive | inactive | inactive | inactive | EC50, p53 activation, cherry pick confirmation [1]: inactive; Efficacy, p53 activation, cherry pick confirmation [1]: inactive; EC50 [3, 11]: 2.11 µM; Efficacy, viability, cherry pick confirmation (p53RE-bla HCT-116 cells): inactive; Efficacy, viability, primary screening (p53RE-bla HCT-116 cells): inactive; EC50 [4, 12]: 17.8 µM; EC50 [4, 13]: 2.97 µM; Emax [4, 14]: 121% |
| COP(=O)(OC)O/C(=C\Cl)c1cc(Cl)c(Cl)cc1Cl [Z-Tetrachlorvinphos] | – | – | inactive | – | inactive | – | inactive | inactive | inactive | inactive | inactive | inactive | inactive | inactive | – | – | – | – | – | – | EC50 [3, 9]: 31.6 µM; Emax [3, 10]: 115% |
| CNC(=O)Oc1cc(C)cc(C(C)C)c1 [Promecarb] | – | – | inactive | – | inactive | – | inactive | inactive | inactive | inactive | inactive | inactive | inactive | inactive | – | – | – | – | – | – | EC50 [3, 9]: 20 µM; Emax [3, 10]: 40.2% |
| O=c1[nH]cc(F)c(=O)[nH]1 [5-Fluorouracil] | – | – | – | – | – | – | – | – | – | – | – | – | – | – | inactive | inactive | inactive | inactive | inactive | inactive | EC50, p53 activation, cherry pick confirmation [1]: inactive; Efficacy, p53 activation, cherry pick confirmation [1]: inactive; EC50 [3, 11]: 3.79 µM; Efficacy, viability, cherry pick confirmation (p53RE-bla HCT-116 cells): inactive; Efficacy, viability, primary screening (p53RE-bla HCT-116 cells): inactive; EC50 [4, 12]: 21.2 µM; EC50 [4, 13]: 5.93 µM; Emax [4, 14]: 98.3% |
| CCCCOCCOP(=O)(OCCOCCCC)OCCOCCCC [Tris(2-butoxyethyl) phosphate] | inactive | inactive | inactive | inactive | inactive | inactive | inactive | inactive | inactive | inactive | inactive | inactive | inactive | inactive | – | – | – | – | – | – | EC50 [3, 5]: 35.1 µM; Emax [3, 6]: 48.7% |
| Nc1ccn([C@@H]2O[C@H](CO)[C@@H](O)[C@@H]2O)c(=O)n1 [Cytarabine] | – | – | – | – | – | – | – | – | – | – | – | – | – | – | inactive | inactive | inactive | inactive | inactive | inactive | EC50 ([3]; HCT-116, read-out: EC50, p53 activation, cherry pick confirmation): 0.903 µM; Emax ([3]; HCT-116, read-out: Efficacy, p53 activation, cherry pick confirmation): 33.4%; Emax ([3]; HCT-116, read-out: Efficacy, p53 activation, primary screening): 31.7%; Efficacy, viability, cherry pick confirmation (p53RE-bla HCT-116 cells): inactive; Efficacy, viability, primary screening (p53RE-bla HCT-116 cells): inactive; EC50 [4, 12]: 0.913 µM; Emax [4, 14]: 96.4%; Emax [4, 15]: 83.8% |
| c1cc(N(CC2CO2)CC2CO2)ccc1OCC1CO1 (stereo not drawn) [4-(Diglycidylamino)phenyl glycidyl ether] | inactive | inactive | inactive | inactive | inactive | inactive | inactive | inactive | inactive | inactive | – | 85.4543 | – | 57.856 | – | – | – | – | – | – | p53 activation EC50, primary screening [1]: inactive; p53 activation efficacy, primary screening [1]: inactive; EC50 ([4]; read-out: p53 activation EC50, cherry pick confirmation): 23.5 µM; EC50 ([4]; read-out: p53 activation EC50, primary screening): 27.3 µM |
| COc1cccc2c1C(=O)c1c(O)c3c(c(O)c1C2=O)C[C@@](O)(C(=O)CO)C[C@@H]3O[C@H]1C[C@H](N)[C@H](O)[C@H](C)O1 [Adriamycin hydrochloride] | – | – | – | – | – | – | – | – | – | – | – | – | – | – | inactive | inactive | inactive | inactive | inactive | inactive | EC50, p53 activation, cherry pick confirmation [1]: inactive; EC50, p53 activation, primary screening [1]: inactive; Efficacy, p53 activation, cherry pick confirmation [1]: inactive; Efficacy, p53 activation, primary screening [1]: inactive; Efficacy, viability, cherry pick confirmation (p53RE-bla HCT-116 cells): inactive; Efficacy, viability, primary screening (p53RE-bla HCT-116 cells): inactive; EC50 [4, 12]: 1.45 µM; EC50 [4, 13]: 0.963 µM; Emax [4, 14]: 335%; Emax [4, 15]: 220% |
| CC[C@@]1(O)C(=O)OCc2c1cc1n(c2=O)Cc2c-1nc1ccccc1c2/C=N/OC(C)(C)C [Gimatecan] | inactive | inactive | inactive | inactive | inactive | inactive | inactive | inactive | inactive | inactive | – | – | – | – | – | – | – | – | – | – | p53 activation EC50, primary screening [1]: inactive; p53 activation efficacy, primary screening [1]: inactive; EC50 ([4]; Homo sapiens, HCT-116, read-out: p53 activation EC50, cherry pick confirmation): 0.345 µM; EC50 [4, 7]: 0.118 µM; Emax ([4]; Homo sapiens, HCT-116, read-out: p53 activation efficacy, cherry pick confirmation): 257%; Emax [4, 8]: 118% |
| O=C(O)Cc1cc(I)c(Oc2ccc(O)c(I)c2)c(I)c1 [Tiratricol] | – | – | – | – | – | – | – | – | – | – | – | – | – | – | – | – | – | – | – | – | p53 activation EC50 [1]: inactive; p53 activation efficacy [1]: inactive; p53 activation EC50 [2]: inactive; p53 activation efficacy [2]: inactive; Viability EC50 (p53RE-bla HCT-116 cells): inactive; Viability efficacy (p53RE-bla HCT-116 cells): inactive; p53 activation efficacy [4]: 79.5057 and 58.391; EC50 ([4]; Homo sapiens, HCT-116, read-out: p53 activation EC50): 16.5 µM; EC50 ([4]; read-out: p53 activation EC50): 10.7 µM |
